Results on 18 compounds are retold here after US9102675B2, “3-Cyanoaryl-1H-pyrrolo[2,3-B] pyridine derivatives” (MERCK PATENT GMBH, priority 2011, dated 2015).

Assay [1] has as its target T1, TANK binding kinase (TBK1) (Homo sapiens, UniProt Q9UHD2).
T1 sequence (Q9UHD2 1-729): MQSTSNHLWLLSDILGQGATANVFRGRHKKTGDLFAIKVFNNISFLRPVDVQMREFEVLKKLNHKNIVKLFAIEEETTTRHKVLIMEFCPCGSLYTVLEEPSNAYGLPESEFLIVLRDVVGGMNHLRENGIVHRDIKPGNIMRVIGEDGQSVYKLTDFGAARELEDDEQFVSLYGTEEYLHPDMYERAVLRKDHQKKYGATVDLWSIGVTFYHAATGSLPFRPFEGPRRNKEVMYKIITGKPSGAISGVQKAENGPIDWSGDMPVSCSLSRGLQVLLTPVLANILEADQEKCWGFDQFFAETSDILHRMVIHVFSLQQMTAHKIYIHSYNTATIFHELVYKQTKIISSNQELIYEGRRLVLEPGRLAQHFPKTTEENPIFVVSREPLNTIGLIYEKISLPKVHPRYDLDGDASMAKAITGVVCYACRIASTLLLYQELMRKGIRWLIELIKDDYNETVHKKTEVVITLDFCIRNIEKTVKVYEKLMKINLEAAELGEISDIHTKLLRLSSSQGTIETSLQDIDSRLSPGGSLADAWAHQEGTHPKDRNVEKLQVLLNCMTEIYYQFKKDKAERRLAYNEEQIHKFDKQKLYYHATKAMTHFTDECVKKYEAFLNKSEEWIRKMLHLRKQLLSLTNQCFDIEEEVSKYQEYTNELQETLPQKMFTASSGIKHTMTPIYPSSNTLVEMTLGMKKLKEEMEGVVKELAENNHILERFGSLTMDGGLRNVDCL
Description: TBK1 enzyme assay (384-well flashplate kinase assay). In kind it is biochemical. Conditions: 10 μM ATP, 0.6 nM TBK1. The procedure:
Test for the Inhibition of TBK1
(§1) The kinase assay is performed as 384-well flashplate assay (for example for Topcount measurement).
0.6 nM TANK binding kinase (TBK1), 800 nM biotinylated MELK-derived peptide (biotin-Ah-Ah-[…]) and 10 μM ATP (spiked with 0.25 μCi of ^33P-ATP/well) are incubated at 30° C. for 120 min in a total volume of 50 μl (10 mM MOPS, 10 mM Mg acetate, 0.1 mM EGTA, 1 mM DTT, 0.02% of Brij35, 0.1% of BSA, pH 7.5) with or without test compound. The reaction is stopped with 25 μl of 200 mM EDTA. After 30 min at room temperature, the liquid is removed, and each well is washed three times with 100 μl of 0.9% sodium chloride solution. Non-specific reaction is measured in the presence of 100 nM staurosporine. The radioactivity is measured in a Topcount (PerkinElmer). The results (for example IC50 values) are calculated using program tools provided by the IT Department (for example Assay-Explorer, Symyx). Cell Test

Assay [2] addresses T2, IKKε (Homo sapiens, UniProt Q14164).
T2 sequence (Q14164 1-716): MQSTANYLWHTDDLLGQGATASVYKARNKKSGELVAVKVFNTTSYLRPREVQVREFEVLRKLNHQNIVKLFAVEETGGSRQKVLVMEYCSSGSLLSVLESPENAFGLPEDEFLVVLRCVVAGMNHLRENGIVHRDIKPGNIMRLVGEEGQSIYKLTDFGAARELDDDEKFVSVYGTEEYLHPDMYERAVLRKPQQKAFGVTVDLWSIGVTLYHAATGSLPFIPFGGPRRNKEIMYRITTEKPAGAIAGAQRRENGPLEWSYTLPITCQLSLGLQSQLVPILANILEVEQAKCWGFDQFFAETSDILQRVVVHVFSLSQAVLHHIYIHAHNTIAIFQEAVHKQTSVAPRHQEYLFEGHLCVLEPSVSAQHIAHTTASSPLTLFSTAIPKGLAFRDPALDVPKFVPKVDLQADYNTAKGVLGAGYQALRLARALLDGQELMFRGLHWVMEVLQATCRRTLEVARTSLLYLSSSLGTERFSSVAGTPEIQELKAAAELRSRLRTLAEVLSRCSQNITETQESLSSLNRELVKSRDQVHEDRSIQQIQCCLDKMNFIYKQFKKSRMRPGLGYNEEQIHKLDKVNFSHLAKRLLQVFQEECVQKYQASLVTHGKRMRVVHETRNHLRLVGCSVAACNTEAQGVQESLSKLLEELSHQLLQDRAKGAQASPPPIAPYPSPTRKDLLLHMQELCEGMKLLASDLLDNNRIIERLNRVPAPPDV
Put plainly: IKKε kinase assay (384-well flashplate assay). In kind it is biochemical. The note with it: 10 μM ATP, 1 nM IKKε; read-out: IKKε enzyme assay IC50. The procedure: Test for the Inhibition of IKKε
IKKε—Kinase Assay (IKKepsilon)
as §1
1 nM IKKε, 800 nM biotinylated IκKα(19-42) peptide (Biotin-C6-C6-[…]) and 10 μM ATP (spiked with 0.3 μCi of ^33P-ATP/well) are incubated at 30° C. for 2 hours in a total volume of 50 μl (10 mM MOPS, 10 mM Mg acetate, 0.1 mM EGTA, 1 mM dithiothreitol, 0.02% of Brij35, 0.1% of BSA, 0.1% of BioStab, pH 7.5) with or without test compound. The reaction is stopped using 25 μl of 200 mM EDTA. After 30 min at room temperature, the liquid is removed, and each well is washed three times with 100 μl of 0.9% sodium chloride solution. Non-specific reaction is determined in the presence of 3 μM MSC2119074 (BX-795). The radioactivity is measured using a Topcount (Perkin Elmer). The results (for example IC50 values) are calculated using program tools provided by the IT Department (for example AssayExplorer, Symyx).

Regarding `N#Cc1cc(-c2c[nH]c3ncccc23)ccc1OC1CCOCC1` [Compound A1, 5-(1H-pyrrolo[2,3-b]pyridin-3-yl)-2-tetrahydropyran-4-yloxybenzonitrile], the IC50 in assay [1] and in assay [2] was less than 300 nM each time.
Regarding `Cn1cc(-c2cnc3[nH]cc(-c4ccc(OC5CCOCC5)c(C#N)c4)c3c2)cn1` [Compound A4, 5-[5-(1-methylpyrazol-4-yl)-1H-pyrrolo[2,3-b]pyridin-3-yl]-2-tetrahydropyran-4-yloxybenzonitrile], the IC50 in assay [1] and in assay [2] was less than 300 nM throughout.
Take `N#Cc1cc(-c2c[nH]c3ncc(-c4cnn(CCN5CCOCC5)c4)cc23)ccc1OC1CCOCC1` [Compound A7, 5-[5-[1-(2-morpholinoethyl)pyrazol-4-yl]-1H-pyrrolo[2,3-b]pyridin-3-yl]-2-tetrahydropyran-4-yloxybenzonitrile]: the IC50 in assay [1] and in assay [2] was less than 300 nM each time.
On to `N#Cc1cc(-c2c[nH]c3ncc(-c4ccc(N5CCOCC5)cc4)cc23)ccc1OC1CCOCC1` [Compound A8, 5-[5-(4-morpholinophenyl)-1H-pyrrolo[2,3-b]pyridin-3-yl]-2-tetrahydropyran-4-yloxybenzonitrile], for which the IC50 in assay [1] and in assay [2] was less than 300 nM throughout.
Consider `N#Cc1cc(-c2c[nH]c3ncc(-c4cnn(CCN5CCCC5)c4)cc23)ccc1OC1CCOCC1` [Compound A9, 5-[5-[1-(2-pyrrolidin-1-ylethyl)pyrazol-4-yl]-1H-pyrrolo[2,3-b]pyridin-3-yl]-2-tetrahydropyran-4-yloxybenzonitrile], for which the IC50 in assay [1] and in assay [2] was less than 300 nM throughout.
As for `COCCn1cc(-c2cnc3[nH]cc(-c4ccc(OC5CCOCC5)c(C#N)c4)c3c2)cn1` [Compound A10, 5-[5-[1-(2-methoxyethyl)pyrazol-4-yl]-1H-pyrrolo[2,3-b]pyridin-3-yl]-2-tetrahydropyran-4-yloxybenzonitrile], the IC50 in assay [1] and in assay [2] was less than 300 nM throughout.
For `N#Cc1cc(-c2c[nH]c3ncc(-c4cnn(C5CCNCC5)c4)cc23)ccc1OC1CCOCC1` [Compound A12, 5-[5-(1-piperidin-4-yl-1H-pyrazol-4-yl)-1H-pyrrolo[2,3-b]pyridin-3-yl]-2-(tetrahydropyran-4-yloxy)benzonitrile], the IC50 in assay [1] and in assay [2] was less than 300 nM each time.
Regarding `CN1CCC(Oc2ccc(-c3c[nH]c4ncc(-c5cnn(C)c5)cc34)cc2C#N)CC1` [Compound A13, 2-(1-methylpiperidin-4-yloxy)-5-[5-(1-methyl-1H-pyrazol-4-yl)-1H-pyrrolo[2,3-b]pyridin-3-yl]benzonitrile], the IC50 in assay [1] and in assay [2] was less than 300 nM in each case.
`N#Cc1cc(-c2c[nH]c3ncc(-c4cnn(CCO)c4)cc23)ccc1OC1CCOCC1` [Compound A15, 5-[5-[1-(2-hydroxyethyl)pyrazol-4-yl]-1H-pyrrolo[2,3-b]pyridin-3-yl]-2-tetrahydropyran-4-yloxybenzonitrile]: the IC50 in assay [1] and in assay [2] was less than 300 nM in each case.
`CN1CCC(n2cc(-c3cnc4[nH]cc(-c5ccc(OC6CCOCC6)c(C#N)c5)c4c3)cn2)CC1` [Compound A16, 5-[5-[1-(1-methyl-4-piperidyl)pyrazol-4-yl]-1H-pyrrolo[2,3-b]pyridin-3-yl]-2-tetrahydropyran-4-yloxybenzonitrile]: the IC50 in assay [1] and in assay [2] was less than 300 nM throughout.
Take `CN1CCN(c2cnc3[nH]cc(-c4ccc(OC5CCOCC5)c(C#N)c4)c3c2)CC1` [Compound A17, 5-[5-(4-methylpiperazin-1-yl)-1H-pyrrolo[2,3-b]pyridin-3-yl]-2-tetrahydropyran-4-yloxybenzonitrile]: the IC50 in assay [1] and in assay [2] was 300 to 3000 nM throughout.
With `N#Cc1cc(-c2c[nH]c3ncc(-c4cnn(C5CCNCC5)c4)cc23)cnc1OC1CCOCC1` [Compound A18, 5-[5-[1-(4-piperidyl)pyrazol-4-yl]-1H-pyrrolo[2,3-b]pyridin-3-yl]-2-tetrahydropyran-4-yloxypyridine-3-carbonitrile], the IC50 in assay [1] and in assay [2] was less than 300 nM in each case.
In the case of `CN1CCC(n2cc(-c3cnc4[nH]cc(-c5ccc(OC6CCOCC6)c(C#N)c5)c4c3)cn2)CC1` [Compound A20, 5-[5-[1-(1-methyl-4-piperidyl)pyrazol-4-yl]-1H-pyrrolo[2,3-b]pyridin-3-yl]-2-tetrahydropyran-4-yloxybenzonitrile], the IC50 in assay [1] and in assay [2] was less than 300 nM each time.
In the case of `N#Cc1cc(-c2c[nH]c3ncc(OCCN4CCOCC4)cc23)ccc1OC1CCOCC1` [Compound A21, 5-[5-(2-morpholinoethoxy)-1H-pyrrolo[2,3-b]pyridin-3-yl]-2-tetrahydropyran-4-yloxybenzonitrile], the IC50 in assay [1] and in assay [2] was less than 300 nM in each case.
As to `N#Cc1cc(-c2c[nH]c3ncc(-c4cn(C5CCNCC5)nn4)cc23)ccc1OC1CCOCC1` [Compound A22, 5-[5-[1-(4-piperidyl)triazol-4-yl]-1H-pyrrolo[2,3-b]pyridin-3-yl]-2-tetrahydropyran-4-yloxybenzonitrile], the IC50 in assay [1] and in assay [2] was less than 300 nM throughout.
For `CN1CCC(n2cc(-c3cnc4[nH]cc(-c5ccc(OC6CCOCC6)c(C#N)c5)c4c3)nn2)CC1` [Compound A23, 5-[5-[1-(1-methyl-4-piperidyl)triazol-4-yl]-1H-pyrrolo[2,3-b]pyridin-3-yl]-2-tetrahydropyran-4-yloxybenzonitrile], the IC50 in assay [1] and in assay [2] was less than 300 nM each time.
`CC1(COc2ccc(-c3c[nH]c4ncc(-c5cnn(C6CCNCC6)c5)cc34)cc2C#N)COC1` [Compound A24, 2-[(3-Methyloxetan-3-yl)methoxy]-5-[5-[1-(4-piperidyl)pyrazol-4-yl]-1H-pyrrolo[2,3-b]pyridin-3-yl]-benzonitrile]: the IC50 in assay [1] and in assay [2] was less than 300 nM each time.
As to `N#Cc1cc(-c2c[nH]c3ncc(-c4cnn(C5COC5)c4)cc23)ccc1OC1CCOCC1` [Compound A26, 5-[5-[1-(Oxetan-3-yl)pyrazol-4-yl]-1H-pyrrolo[2,3-b]-pyridin-3-yl]-2-tetrahydropyran-4-yloxybenzonitrile], the IC50 in assay [1] and in assay [2] was less than 300 nM each time.
